These results are taken from paper PMC3793977, “High-Throughput Screening (HTS) and Hit Validation to Identify Small Molecule Inhibitors with Activity against NS3/4A proteases from Multiple Hepatitis C Virus Genotypes” (PLoS ONE, 2013).

“And” between values parts separate entries of the source, which are not always exact repeats. Identical values can stand only once.

What all share (format): biochemical
In experiment [1] the target is T1, Trypsin (Homo sapiens, UniProt P07477).
T1 construct: purchased Sigma
Put plainly: Inhibitor selectivity assay, trypsin (fluorometric). The method, then: (§1) To test for selectivity, two human serine proteases, Trypsin and Chymotrypsin (Sigma), were tested with the top two hit compounds from HTS using a fluorometric assay. The fluorogenic substrates used in this study were N-benzoyl-L-Arg-7-amido-4-methylcoumarin (Sigma) and N-succinyl-Ala-Ala-Phe-7-amido-4- methylcoumarin (Sigma) for trypsin and chymotrypsin, respectively. All assays were performed in 384-well black plates (Corning) in a total volume of 24 µL of PBS (pH 7.4) buffer containing 0.01% Triton, 0.1 mg/mL BSA, and 2 mM GSH in triplicate. A series of compound concentrations (0 to 200 µM final concentration at 2-fold serial dilution) in 100% DMSO was prepared in a 384-well plate. 20 µL of trypsin (0.01 mg/mL) and chymotrypsin (0.0001 mg/mL) solutions were distributed into wells, and 0.5 µL of varying concentration of compounds were added and incubated for 10 minutes. The enzyme reaction was initiated by adding 5 µL of the substrate (50 µM final concentration), and fluorescence intensity was continuously monitored at excitation/emission wavelengths of 350 nm/460 nm for 10 minutes.

For experiment [2], the target named is T2, NS3 protease domain (Hepatitis C virus genotype 1b, UniProt Q9WMX2).
T2 construct: the full-length NS3/4A and the NS3/4A protease domain alone
Put plainly: Fluorescence enzymatic assay with NS3 protease domain alone. The settings on record: NS3/4A protease domain only; read-out: IC50 NS3 protease domain. The method, then:
A series of compound concentrations (0 to 200 µM final concentration at 2-fold serial dilution) in 100% DMSO were prepared in a 384-well plate. 20 µL of enzyme solution was distributed to wells, and 0.5 µL of varying concentration of compounds were added and incubated for 5 minutes. The enzyme reaction was initiated by adding 5 µL of the substrate, and its activity was continuously monitored for 6 minutes. The IC50 values were calculated by fitting with the Hill equation (1), with OriginPro 8.5 (OriginLab, Inc.) where y is percent inhibition, x is inhibitor concentration, n is the slope of the concentration–response curve (Hill slope), and Vmax is maximal inhibition from two to four independent assays. [drawing 1] (1)

Experiment [3] deals with T3, full-length NS3/4A (Hepatitis C virus genotype 1b, UniProt Q9WMX2).
T3 construct: wild-type HCV NS3 (HCV polyprotein residues 1027–1657); His-tag (N); made in house
Put plainly: Type (mechanism) of enzyme inhibition, kinetic analysis. The method, then:
Full-length NS3/4A activity was monitored in the same way as the primary screening with varying concentration of both inhibitor compounds and substrate (0–8 µM). The concentration of compounds varied from 0 to 20 µM at 1.5-fold dilution factor.

The target in experiment [4] is T4, HCV replicon cell lysate sg 1b (NS3) (Hepatitis C virus genotype 1b, UniProt Q9WMX2).
T4 construct: host or cells: Huh7 Clone B cells stably replicating an HCV 1b subgenomic replicon; whole cell lysate
Put plainly: Whole cell lysate inhibition assay, HCV subgenomic replicon 1b. The method, then:
Huh7-1 cells (also known as Huh7/scr cells) were obtained from F.V. Chisari (The Scripps Research Institute, La Jolla, CA). Clone B HCV sub-genotype 1b Huh7 cells were obtained from the NIH AIDS Research and Reference Reagent Program and have been previously described. Huh7 cells stably replicating the sub-genotype 2a HCV JFH-1 replicon were generated as previously described. All cells were cultured in complete Dulbecco’s modified Eagle’s medium (DMEM) supplemented with 10% fetal bovine serum, 100 units/mL penicillin, […] streptomycin, and 2 mM L-glutamine. HCV replicon cells were maintained in 500 µg/mL Geneticin (Invitrogen). For NS3 inhibition analysis, lysates from parental Huh7 cells and HCV replicon cells were harvested on ice in pre-chilled FRET cell lysis buffer (50 mM Tris-HCl, pH 7.5; 150 mM NaCl, 2 mM EDTA, 1.25% Triton X-100). Lysates were brought to room temperature and mixed 1∶1 with 2× FRET assay buffer (100 mM Tris-HCl, pH 7.5, 300 mM NaCl, 4 mM EDTA, 2.5% Triton X-100, 10 mM GSH, and 4 µM substrate). Fluorescence intensity was continuously monitored for 1 hour, and IC50 values were determined in the same way as biochemical assays.
In general terms: Replicon systems follow genome replication, usually without infectious particles.

Experiment [5] concerns the target T5, NS3/4A protease genotype 1a (Hepatitis C virus genotype 1a, UniProt P27958).
T5 construct: against the NS3/4A protease domains from three additional HCV genotypes (1a, 2a, and 4d); purchased Anaspec
Put plainly: Inhibition assay with NS3/4A from genotype 1a. The settings on record: IC50 NS3/4A genotype 1a. The method, then:
(§2) The inhibitory activity of the final hit compounds from HTS were tested against three other HCV genotypes (1a, 2a, and 4d), along with a control (genotype 1b) and five NS3 drug-resistant mutants. Eight full-length NS3 mutants (V36M, R155K, A156T, A156S, 156V, V36A, T54A, and R155T) were generated by mutagenesis and purified, and the three HCV NS3/4A protease genotypes were purchased from Anaspec. Unfortunately the enzyme activities of the three mutants V36A, T54A, and R155T were much less than that of the rest of the mutants and were insufficient for testing, therefore mutant studies were done with the five active mutants. Continuous kinetic assays were performed against all hit compounds in the same way as the wild-type NS3/4A. As a control, full-length NS3/4A (genotype 1b) was tested under the same conditions for direct comparison for each plate.

Experiment [6] deals with T6, full-length NS3/4A genotype 1b mutant A156V (Hepatitis C virus genotype 1b, UniProt Q9WMX2, A1182V).
T6 construct: wild-type HCV NS3 (HCV polyprotein residues 1027–1657); His-tag (N); made in house
Put plainly: Inhibition assay with drug-resistant mutant A156V. The settings on record: genotype 1b full-length mutant. How it is done: (§3) The full-length genes of wild-type HCV NS3 (HCV polyprotein residues 1027–1657) with a his-tag at the N-terminus and NS4A (residues 1658–1711) with no tag were cloned, co-expressed, and purified as described. Eight NS3 drug resistant mutants (V36M, V36A, T54A, R155K, R155T, A156T, A156S, and 156V) were generated by mutagenesis using full-length, wild-type NS3-containing recombinant plasmid (pETDuet-1/FL NS3/4A) as a template. The over-expression and purification of all mutants were performed by the same method as the wild-type with minor modifications.
as §2, with “As a control, full-length NS3/4A (genotype 1b) was tested under the same conditions for direct comparison for each plate.” left out

Experiment [7] concerns the target T7, Chymotrypsin (Homo sapiens, UniProt P17538).
T7 construct: purchased Sigma
Put plainly: Inhibitor selectivity assay, chymotrypsin (fluorometric). The method, then: as §1

Experiment [8] deals with T8, full-length NS3/4A genotype 1b mutant V36M (Hepatitis C virus genotype 1b, UniProt Q9WMX2, V1062M).
T8 construct: wild-type HCV NS3 (HCV polyprotein residues 1027–1657); His-tag (N); made in house
Put plainly: Inhibition assay with drug-resistant mutant V36M. The settings on record: genotype 1b full-length mutant. The method, then: as §3
as §2, with “As a control, full-length NS3/4A (genotype 1b) was tested under the same conditions for direct comparison for each plate.” left out

Experiment [9] concerns the target T9, full-length NS3/4A genotype 1b mutant A156S (Hepatitis C virus genotype 1b, UniProt Q9WMX2, A1182S).
T9 construct: wild-type HCV NS3 (HCV polyprotein residues 1027–1657); His-tag (N); made in house
Put plainly: Inhibition assay with drug-resistant mutant A156S. The method, then: as §3
as §2, with “As a control, full-length NS3/4A (genotype 1b) was tested under the same conditions for direct comparison for each plate.” left out

As a reminder, the IC50 is the midpoint of a concentration-inhibition curve. As usually defined, the Ki is the dissociation constant of the complex between target and ligand, obtained from inhibition or displacement. Read a low Ki as tighter binding. For the molecule `Cc1cc(NC(=O)Cc2csc(NS(=O)(=O)c3ccccc3)n2)ccc1Br` [Compound 12], the inhibition at 100 µM amounted to 28% in experiment [1] (100 µM compound, read-out: Trypsin % Inh at 100 µM) and 19% in experiment [7] (100 µM compound, read-out: Chymotrypsin % Inh at 100 µM). Besides, the IC50 is over 100 µM in [1] (human trypsin); 9.3 ± 1.6 µM in experiment [2]; < 120 µM and 29.3 µM in experiment [4] (whole cell lysate, subgenomic replicon 1b); under 20 µM in experiment [5]; at most 20 µM in experiment [6]; over 100 µM in [7] (human chymotrypsin). Further, the IC50 in experiment [8] and in experiment [9] was at most 20 µM each time. Further, the Ki in [3] (competitive model, with respect to substrate) is 3.5 µM. The mechanism of inhibition entry in experiment [3] (with respect to the substrate, best fit model) was “competitive inhibitors”. For the same molecule, the “fold increase of IC50, whole cell lysate 1b vs biochemical assay” value in experiment [4] (sg1b lysate compared to purified enzyme) was 10–20 fold.
